Each structure is given as a SMILES string. pEC50, pKi: −log10 of the molar value. Like-named read-outs stand apart in the source and are kept apart here.

For assay [1], the system named is mouse FL5.12 cells transfected with Bcl-XL. The experiment in a line: FL5.12 cellular assay (cell viability, CellTiter-Glo).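 Further: each EC50 determination derived from duplicate measurements.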 Conditions: FL5.12 cells transfected with Bcl-XL, IL-3-depleted, 3% FBS assay media, 24 hours, CellTiter-Glo, read-out: FL5.12 Bcl-xL, - IL3, EC 50. The format is cell-based.
In a further assay the target is GST-Bcl-xL (Homo sapiens, UniProt Q07817). Conditions: read-out: TR-FRET binding Bcl-xL Ki.
Chain of GST-Bcl-xL (Q07817 whole entry): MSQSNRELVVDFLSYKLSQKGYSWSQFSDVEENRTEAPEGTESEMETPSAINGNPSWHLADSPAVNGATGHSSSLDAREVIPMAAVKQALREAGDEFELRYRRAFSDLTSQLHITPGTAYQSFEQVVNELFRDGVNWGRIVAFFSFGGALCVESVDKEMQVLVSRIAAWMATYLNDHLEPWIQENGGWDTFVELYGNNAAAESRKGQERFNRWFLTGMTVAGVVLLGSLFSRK

As to `Cc1c(-c2ccc(N3CCc4cccc(C(=O)Nc5nc6ccccc6s5)c4C3)nc2C(=O)O)c(CO)nn1Cc1ccccc1` [Example 30, 6-[8-(1,3-benzothiazol-2-ylcarbamoyl)-3,4-dihydroisoquinolin-2(1H)-yl]-3-[1-benzyl-3-(hydroxymethyl)-5-methyl-1H-pyrazol-4-yl]pyridine-2-carboxylic acid], the pEC50 in assay [1] (Mus musculus) was 6.53. Moreover, the pKi (in general, −log10 of the Ki, conventionally taken in molar units) at GST-Bcl-xL is 8.70.
As for `O=C(Nc1nc2ccccc2s1)c1cccc2c1CN(c1ccc(-c3cnn(Cc4cccnc4)c3)c(C(=O)O)n1)CC2` [Example 3, 6-[8-(1,3-benzothiazol-2-ylcarbamoyl)-3,4-dihydroisoquinolin-2(1H)-yl]-3-[1-(pyridin-3-ylmethyl)-1H-pyrazol-4-yl]pyridine-2-carboxylic acid], the pEC50 in assay [1] is below 6.00. In addition, at GST-Bcl-xL, the pKi was 6.59.
For `O=C(Nc1nc2ccccc2s1)c1cccc2c1CN(c1ccc(-c3ccnc(Oc4ccccc4)c3)c(C(=O)O)n1)CC2` [Example 140, 6-[8-(1,3-benzothiazol-2-ylcarbamoyl)-3,4-dihydroisoquinolin-2(1H)-yl]-2'-phenoxy-3,4'-bipyridine-2-carboxylic acid], the pEC50 in assay [1] (Mus musculus) was below 6.00. Further, on GST-Bcl-xL, the pKi was 8.64.
Take `O=C(Nc1nc2ccccc2s1)c1cccc2c1CN(c1ccc(-c3cccc(Oc4ccc([N+](=O)[O-])cc4)c3)c(C(=O)O)n1)CC2` [Example 104, 6-[8-(1,3-benzothiazol-2-ylcarbamoyl)-3,4-dihydroisoquinolin-2(1H)-yl]-3-[3-(4-nitrophenoxy)phenyl]pyridine-2-carboxylic acid]: the pEC50 in assay [1] (Mus musculus) was below 6.00. Further, the pKi at GST-Bcl-xL is 7.85.
As to `O=C(Nc1nc2ccccc2s1)c1cccc2c1CN(c1ccc(-c3cnn(Cc4ccccn4)c3)c(C(=O)O)n1)CC2` [Example 26, 6-[8-(1,3-benzothiazol-2-ylcarbamoyl)-3,4-dihydroisoquinolin-2(1H)-yl]-3-[1-(pyridin-2-ylmethyl)-1H-pyrazol-4-yl]pyridine-2-carboxylic acid], the pEC50 in assay [1] is below 6.00. In addition, on GST-Bcl-xL, the pKi was 6.78.
With `COCCOC1(Cn2c(C#N)cc(-c3ccc(N4CCc5cccc(C(=O)Nc6nc7ccccc7s6)c5C4)nc3C(=O)O)c2C)CCCCCC1` [Example 172, 6-[8-(1,3-benzothiazol-2-ylcarbamoyl)-3,4-dihydroisoquinolin-2(1H)-yl]-3-(5-cyano-1-{[1-(2-methoxyethoxy)cycloheptyl]methyl}-2-methyl-1H-pyrrol-3-yl)pyridine-2-carboxylic acid], the pEC50 in assay [1] (Mus musculus) was 9.00. Moreover, the pKi on GST-Bcl-xL is above 10.00.
Turning to `COC1(Cn2ncc(-c3ccc(N4CCc5cccc(C(=O)Nc6nc7ccccc7s6)c5C4)nc3C(=O)O)c2C)CCCC(C)(C)C1` (centres unmarked) [Example 157, 6-[8-(1,3-benzothiazol-2-ylcarbamoyl)-3,4-dihydroisoquinolin-2(1H)-yl]-3-{1-[(1-methoxy-3,3-dimethylcyclohexyl)methyl]-5-methyl-1H-pyrazol-4-yl}pyridine-2-carboxylic acid], the pEC50 in assay [1] (Mus musculus) is 9.52. For the same compound, the pKi on GST-Bcl-xL is above 10.00.
As to `COc1ccc2nc(NC(=O)c3cccc4c3CN(c3ccc(-c5cnn(Cc6ccccc6)c5)c(C(=O)O)n3)CC4)sc2c1` [Example 11, 3-(1-benzyl-1H-pyrazol-4-yl)-6-{8-[(6-methoxy-1,3-benzothiazol-2-yl)carbamoyl]-3,4-dihydroisoquinolin-2(1H)-yl}pyridine-2-carboxylic acid], the pEC50 in assay [1] is below 6.00. Besides, the pKi on GST-Bcl-xL was 6.74.
Regarding `CC1(C)CCCC(Cn2cc(-c3ccc(N4CCc5cccc(C(=O)Nc6nc7ccccc7s6)c5C4)nc3C(=O)O)cn2)C1` (centres unmarked) [Example 92, 6-[8-(1,3-benzothiazol-2-ylcarbamoyl)-3,4-dihydroisoquinolin-2(1H)-yl]-3-{1-[(3,3-dimethylcyclohexyl)methyl]-1H-pyrazol-4-yl}pyridine-2-carboxylic acid], the pEC50 in assay [1] (Mus musculus) was 7.25. For the same compound, at GST-Bcl-xL, the pKi was 8.70.
In the same order, the values of `COCCC(C1CCCCC1)n1ncc(-c2ccc(N3CCc4cccc(C(=O)Nc5nc6ccccc6s5)c4C3)nc2C(=O)O)c1C` (centres unmarked) [Example 184, 6-[8-(1,3-benzothiazol-2-ylcarbamoyl)-3,4-dihydroisoquinolin-2(1H)-yl]-3-[1-(1-cyclohexyl-3-methoxypropyl)-5-methyl-1H-pyrazol-4-yl]pyridine-2-carboxylic acid] are 8.70 and above 10.00.
For the compound `COCCCC1(Cn2ncc(-c3ccc(N4CCc5cccc(C(=O)Nc6nc7ccccc7s6)c5C4)nc3C(=O)O)c2C)CCCCCC1` [Example 147, 6-[8-(1,3-benzothiazol-2-ylcarbamoyl)-3,4-dihydroisoquinolin-2(1H)-yl]-3-(1-{[1-(3-methoxypropyl)cycloheptyl]methyl}-5-methyl-1H-pyrazol-4-yl)pyridine-2-carboxylic acid], the pEC50 in assay [1] was 9.00. The pKi at GST-Bcl-xL was above 10.00.
For `Cc1c(-c2ccc(N3CCc4cccc(C(=O)Nc5nc6ccccc6s5)c4C3)nc2C(=O)O)cnn1CC1(OCC(=O)N2CCOCC2)CCCCC1` [Example 174, 6-[8-(1,3-benzothiazol-2-ylcarbamoyl)-3,4-dihydroisoquinolin-2(1H)-yl]-3-[5-methyl-1-({1-[2-(morpholin-4-yl)-2-oxoethoxy]cyclohexyl}methyl)-1H-pyrazol-4-yl]pyridine-2-carboxylic acid], the pEC50 in assay [1] (Mus musculus) was 6.68. Besides, at GST-Bcl-xL, the pKi was above 10.00.
The matching figures for `COCCC1(Cn2ncc(-c3ccc(N4CCc5cccc(C(=O)Nc6nc7ccccc7s6)c5C4)nc3C(=O)O)c2C)CCCCCC1` [Example 134, 6-[8-(1,3-benzothiazol-2-ylcarbamoyl)-3,4-dihydroisoquinolin-2(1H)-yl]-3-(1-{[1-(2-methoxyethyl)cycloheptyl]methyl}-5-methyl-1H-pyrazol-4-yl)pyridine-2-carboxylic acid]: 9.05 and above 10.00.
The matching figures for `Cc1c(-c2ccc(N3CCc4cccc(C(=O)Nc5nc6ccccc6s5)c4C3)nc2C(=O)O)cnn1Cc1ccccc1OCCN(C)C` [Example 49, 6-[8-(1,3-benzothiazol-2-ylcarbamoyl)-3,4-dihydroisoquinolin-2(1H)-yl]-3-(1-{2-[2-(dimethylamino)ethoxy]benzyl}-5-methyl-1H-pyrazol-4-yl)pyridine-2-carboxylic acid]: 7.92 and 9.22.
For `O=C(Nc1nc2cccc(Cl)c2s1)c1cccc2c1CN(c1ccc(-c3cnn(Cc4ccccc4)c3)c(C(=O)O)n1)CC2` [Example 21, 3-(1-benzyl-1H-pyrazol-4-yl)-6-{8-[(7-chloro-1,3-benzothiazol-2-yl)carbamoyl]-3,4-dihydroisoquinolin-2(1H)-yl}pyridine-2-carboxylic acid], the pEC50 in assay [1] is below 6.00. In addition, the pKi at GST-Bcl-xL is 6.74.
Turning to `O=C(Nc1nc2ccccc2s1)c1cccc2c1CN(c1ccc(-c3cccc(Oc4ccc(Cl)cc4)c3)c(C(=O)O)n1)CC2` [Example 105, 6-[8-(1,3-benzothiazol-2-ylcarbamoyl)-3,4-dihydroisoquinolin-2(1H)-yl]-3-[3-(4-chlorophenoxy)phenyl]pyridine-2-carboxylic acid], in assay [1] (Mus musculus), the pEC50 was below 6.00. Further, the pKi on GST-Bcl-xL was 8.15.

For the origin of these results see patent publication EP2768830B1, “APOPTOSIS-INDUCING AGENTS FOR THE TREATMENT OF CANCER AND IMMUNE AND AUTOIMMUNE DISEASES” (AbbVie Inc., priority 2011, dated 2013).
